This is an account of results in patent US8883826B2, “Alkynyl derivatives as modulators of metabotropic glutamate receptors” (Addex Pharma SA, priority 2004, dated 2014).

SMILES strings stand for the structures. A value given as a limit tells only on which side of the number the result lay.

For orientation: IC50 means the concentration that gives 50% inhibition. Low values mean inhibition by little substance, high ones a need for much substance.

In the test the target is T1, mGluR5 (Rattus norvegicus, UniProt P31424).
T1 construct: tissue Charles River Laboratories; host or cells: rat brain cortex membranes (Sprague-Dawley)
T1 sequence (P31424 21-1203): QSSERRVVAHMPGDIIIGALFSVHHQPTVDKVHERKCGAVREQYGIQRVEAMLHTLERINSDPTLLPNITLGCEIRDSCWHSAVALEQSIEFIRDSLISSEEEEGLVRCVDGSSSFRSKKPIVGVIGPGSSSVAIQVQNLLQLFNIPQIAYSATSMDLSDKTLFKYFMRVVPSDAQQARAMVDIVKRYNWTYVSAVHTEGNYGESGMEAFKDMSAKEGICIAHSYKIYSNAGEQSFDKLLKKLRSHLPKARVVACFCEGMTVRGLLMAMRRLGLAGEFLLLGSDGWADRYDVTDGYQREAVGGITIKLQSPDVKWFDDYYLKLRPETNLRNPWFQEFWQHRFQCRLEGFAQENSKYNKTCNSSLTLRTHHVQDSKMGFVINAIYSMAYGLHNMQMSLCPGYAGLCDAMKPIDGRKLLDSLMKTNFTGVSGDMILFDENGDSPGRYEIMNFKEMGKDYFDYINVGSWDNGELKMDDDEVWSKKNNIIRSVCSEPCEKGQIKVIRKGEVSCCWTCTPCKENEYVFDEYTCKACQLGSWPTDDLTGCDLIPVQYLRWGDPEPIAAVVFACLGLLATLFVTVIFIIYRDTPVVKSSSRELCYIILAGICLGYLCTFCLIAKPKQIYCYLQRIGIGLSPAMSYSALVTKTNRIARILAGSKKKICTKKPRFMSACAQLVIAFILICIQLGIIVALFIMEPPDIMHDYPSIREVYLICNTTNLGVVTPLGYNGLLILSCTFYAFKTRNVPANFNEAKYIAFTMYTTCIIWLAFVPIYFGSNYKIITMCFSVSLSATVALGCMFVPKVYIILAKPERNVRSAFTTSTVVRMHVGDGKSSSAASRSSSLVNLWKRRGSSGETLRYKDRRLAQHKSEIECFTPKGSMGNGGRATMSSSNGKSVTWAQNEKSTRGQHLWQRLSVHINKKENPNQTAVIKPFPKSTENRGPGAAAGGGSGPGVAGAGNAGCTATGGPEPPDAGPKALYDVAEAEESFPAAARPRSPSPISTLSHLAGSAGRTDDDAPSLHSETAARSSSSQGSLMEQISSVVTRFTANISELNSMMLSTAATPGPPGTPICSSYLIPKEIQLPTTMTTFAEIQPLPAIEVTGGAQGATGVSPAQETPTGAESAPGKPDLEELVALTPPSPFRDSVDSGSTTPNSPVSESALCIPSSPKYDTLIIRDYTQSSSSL
In words: mGluR5 binding assay ([3H]-MPEP radioligand competition). Conditions: competition with 3 nM [3H]-MPEP, rat brain cortical membranes, 1 h at 4 °C; mean of at least three independent experiments in duplicate. The text has this:
Activity of compounds of the invention was examined following a radioligand binding technique using whole rat brain and tritiated 2-methyl-6-(phenylethynyl)-pyridine ([^3H]-MPEP) as a ligand following similar methods than those described in F. Gasparini et al. Bioorg. Med. Chem. Lett. 2002, 12, 407-409 and in J. F. Anderson et al. J. Pharmacol. Exp. Ther. 2002, 303, 3, 1044-1051.
Cortices were dissected out from brains of 200-300 g Sprague-Dawley rats (Charles River Laboratories, L'Arbresle, France). Tissues were homogenized in 10 volumes (vol/wt) of ice-cold 50 mM Hepes-NaOH (pH 7.4) using a Polytron disrupter (Kinematica AG, Luzern, Switzerland) and centrifuged for 30 min at 40,000 g. (4° C.). The supernatant was discarded and the pellet washed twice by resuspension in 10 volumes 50 mM HEPES-NaOH. Membranes were then collected by centrifugation and washed before final resuspension in 10 volumes of 20 mM HEPES-NaOH, pH 7.4. Protein concentration was determined by the Bradford method (Bio-Rad protein assay, Reinach, Switzerland) with bovine serum albumin as standard.
[^3H]-MPEP Binding Experiments:
Membranes were thawed and resuspended in binding buffer containing 20 mM HEPES-NaOH, 3 mM MgCl2, 3 mM CaCl2, 100 mM NaCl, pH 7.4. Competition studies were carried out by incubating for 1 h at 4° C.: 3 nM [^3H]-MPEP (39 Ci/mmol, Tocris, Cookson Ltd, Bristol, U.K.), 50 μg membrane and a concentration range of 0.003 nM-30 μM of compounds, for a total reaction volume of 300 μl. The non-specific binding was defined using 30 μM MPEP. Reaction was terminated by rapid filtration over glass-fiber filter plates (Unifilter 96-well GF/B filter plates, Perkin-Elmer, Schwerzenbach, Switzerland) using 4×400 μl ice cold buffer using cell harvester (Filtermate, Perkin-Elmer, Downers Grove, USA). Radioactivity was determined by liquid scintillation spectrometry using a 96-well plate reader (TopCount, Perkin-Elmer, Downers Grove, USA).
The inhibition curves were generated using the Prism GraphPad program (Graph Pad Software Inc, San Diego, USA). IC50 determinations were made from data obtained from 8 point-concentration response curves using a non linear regression analysis.
The table below represents the mean of IC50 obtained from at least three independent experiments of selected molecules performed in duplicate.
A general note: Loss of bound radioactivity is the signal in a displacement assay; it reports binding, not function.
For the compound `FC(F)(F)Oc1ccccc1-c1noc(CCC#Cc2ccccn2)n1` [Example 61, 2-(4-(3-(2-(Trifluoromethoxy)phenyl)-1,2,4-oxadiazol-5-yl)but-1-ynyl)pyridine], the IC50 was below 10 µM.
The figure for `Fc1ccc2nc(CCC#Cc3ccccn3)oc2c1` [Example 62, 6-Fluoro-2-(4-(pyridin-2-yl)but-3-ynyl)benzo[d]oxazole] is below 0.05 µM; for `Clc1cccc2nc(CCC#Cc3ccccn3)oc12` [Example 63, 7-Chloro-2-(4-(pyridin-2-yl)but-3-ynyl)benzo[d]oxazole] it is below 0.05 µM; for `Fc1cccc2nc(CCC#Cc3ccccn3)oc12` [Example 64, 7-Fluoro-2-(4-(pyridin-2-yl)but-3-ynyl)benzo[d]oxazole] it is below 0.05 µM.
The compound `C(#Cc1ccccn1)CCc1ncc(-c2ccccc2)o1` [Example 65, 2-(4-(5-Phenyloxazol-2-yl)but-1-ynyl)pyridine] registered an IC50 below 0.05 µM.
For `Cc1c(Cl)cccc1-c1noc(CCC#Cc2ccccn2)n1` [Example 66, 2-(4-(3-(3-Chloro-2-methylphenyl)-1,2,4-oxadiazol-5-yl)but-1-ynyl)pyridine] the value was below 0.5 µM.
The figure for `Cc1cccn2cc(CCC#Cc3ccccn3)nc12` [Example 67, 8-Methyl-2-(4-(pyridin-2-yl)but-3-ynyl)-imidazo[1,2-a]pyridine] is below 10 µM; for `Cc1cccc2nc(CCC#Cc3ccccn3)cn12` [Example 68, 5-Methyl-2-(4-(pyridin-2-yl)but-3-ynyl)-imidazo[1,2-a]pyridine] it is below 10 µM; for `C(#Cc1ccccn1)CCc1cn2c(-c3ccccc3)cccc2n1` [Example 69, 5-Phenyl-2-(4-(pyridin-2-yl)but-3-ynyl)-imidazo[1,2-a]pyridine] it is below 0.05 µM.
The figure for `Oc1cccc2oc(CCC#Cc3ccccn3)nc12` [Example 70, 2-(4-(Pyridin-2-yl)but-3-ynyl)benzo[d]oxazol-4-ol] is below 10 µM.
Turning to `Fc1ccc(C#CCCc2nc3ccccc3o2)nc1` [Example 71, 2-(4-(5-Fluoropyridin-2-yl)but-3-ynyl)benzo[d]oxazole], the 50% inhibitory concentration (IC50) is below 10 µM.
For `COc1cccc2oc(CCC#Cc3ccccn3)nc12` [Example 72, 4-Methoxy-2-(4-(pyridin-2-yl)but-3-ynyl)benzo[d]oxazole] the value was below 10 µM; for `Cc1nc(C#CCCc2cn3ccccc3n2)cs1` [Example 73, 2-(4-(2-Methylthiazol-4-yl)but-3-ynyl)imidazo[1,2-a]pyridine], below 10 µM.
The figure for `Fc1ccc2nc(CCC#Cc3ccccn3)cn2c1` [Example 74, 6-Fluoro-2-(4-(pyridin-2-yl)but-3-ynyl)-imidazo[1,2-a]pyridine] is below 10 µM; for `Fc1ccc(C#CCCc2cn3ccccc3n2)nc1` [Example 75, 2-(4-(5-Fluoropyridin-2-yl)but-3-ynyl)-imidazo[1,2-a]pyridine] it is below 10 µM.
The figure for `C(#Cc1ccccn1)CCc1nc2cccnc2o1` [Example 76, 2-(4-(Pyridin-2-yl)but-3-ynyl)oxazolo[5,4-b]pyridine] is below 10 µM; for `Fc1cc(Cl)c2oc(CCC#Cc3ccccn3)nc2c1` [Example 77, 7-Chloro-5-fluoro-2-(4-(pyridin-2-yl)but-3-ynyl)benzo[d]oxazole] it is below 0.05 µM; for `C(#Cc1ccccn1)CCc1nc2ncccc2o1` [Example 78, 2-(4-(Pyridin-2-yl)but-3-ynyl)oxazolo[4,5-b]pyridine] it is below 10 µM.
The compound `N#Cc1ccc2oc(CCC#Cc3ccccn3)nc2c1` [Example 79, 2-(4-(Pyridin-2-yl)but-3-ynyl)benzo[d]oxazole-5-carbonitrile] returned an IC50 below 10 µM.
The figure for `Cc1nc(C#CCCc2nc3cc(F)cc(Cl)c3o2)cs1` [Example 80, 7-Chloro-5-fluoro-2-(4-(2-methylthiazol-4-yl)but-3-ynyl)benzo[d]oxazole] is below 0.05 µM; for `FC(F)(F)c1cccc2nc(CCC#Cc3ccccn3)oc12` [Example 81, 7-(Trifluoromethyl)-2-(4-(pyridin-2-yl)but-3-ynyl)benzo[d]oxazole] it is below 0.05 µM.
The figure for `Fc1cc(Br)c2oc(CCC#Cc3ccccn3)nc2c1` [Example 82, 7-Bromo-5-fluoro-2-(4-(pyridin-2-yl)but-3-ynyl)benzo[d]oxazole] is below 0.05 µM; for `Fc1cc(-c2ccccc2)c2oc(CCC#Cc3ccccn3)nc2c1` [Example 83, 5-Fluoro-7-phenyl-2-(4-(pyridin-2-yl)but-3-ynyl)benzo[d]oxazole] it is below 10 µM; for `Clc1nccc(C#CCCc2nc3ccccc3o2)n1` [Example 84, 2-(4-(2-Chloropyrimidin-4-yl)but-3-ynyl)benzo[d]oxazole] it is below 10 µM.
For `Brc1cccc2oc(CCC#Cc3ccccn3)nc12` [Example 86, 4-Bromo-2-(4-(pyridin-2-yl)but-3-ynyl)benzo[d]oxazole] the value was below 0.05 µM; for `C(#Cc1ccccn1)CCc1nc2c(-c3ccccc3)cccc2o1` [Example 87, 4-Phenyl-2-(4-(pyridin-2-yl)but-3-ynyl)benzo[d]oxazole], below 10 µM.
`Clc1cccc2oc(CCC#Cc3ccccn3)nc12` [Example 88, 4-Chloro-2-(4-(pyridin-2-yl)but-3-ynyl)benzo[d]oxazole] returned an IC50 below 0.05 µM.
For `Cc1cccc2nc(CCC#Cc3ccccn3)oc12` [Example 91, 7-Methyl-2-(4-(pyridin-2-yl)but-3-ynyl)benzo[d]oxazole] the value was below 0.05 µM; for `COc1cccc2nc(CCC#Cc3ccccn3)oc12` [Example 94, 7-Methoxy-2-(4-(pyridin-2-yl)but-3-ynyl)benzo[d]oxazole], below 0.05 µM; for `CC(C)c1cccc2nc(CCC#Cc3ccccn3)oc12` [Example 95, 7-Isopropyl-2-(4-(pyridin-2-yl)but-3-ynyl)benzo[d]oxazole], below 10 µM.
For `Fc1ccc(F)c2oc(CCC#Cc3ccccn3)nc12` [Example 96, 4,7-Difluoro-2-(4-(pyridin-2-yl)but-3-ynyl)benzo[d]oxazole] the value was below 0.05 µM; for `Fc1ccc(C(F)(F)F)c2nc(CCC#Cc3ccccn3)oc12` [Example 97, 7-Fluoro-4-(trifluoromethyl)-2-(4-(pyridin-2-yl)but-3-ynyl)benzo[d]oxazole], below 10 µM.
`C(#Cc1ccncn1)CCc1nc2ccccc2o1` [Example 98, 2-(4-(Pyrimidin-4-yl)but-3-ynyl)benzo[d]oxazole] showed an IC50 below 10 µM.
For `CN(C(=O)CCC#Cc1ccccn1)c1cccc(Cl)c1` [Example 99, N-(3-Chlorophenyl)-N-methyl-5-(pyridin-2-yl)pent-4-ynamide] the value was below 10 µM; for `Cc1ccc(Cl)c2sc(CCC#Cc3ccccn3)nc12` [Example 100, 7-Chloro-4-methyl-2-(4-(pyridin-2-yl)but-3-ynyl)benzo[d]thiazole], below 10 µM; for `Fc1cccc2sc(CCC#Cc3ccccn3)nc12` [Example 101, 4-Fluoro-2-(4-(pyridin-2-yl)but-3-ynyl)benzo[d]thiazole], below 0.05 µM.
The figure for `Cc1ccc(C)c2sc(CCC#Cc3ccccn3)nc12` [Example 102, 4,7-Dimethyl-2-(4-(pyridin-2-yl)but-3-ynyl)benzo[d]thiazole] is below 10 µM.
